# In patent US20100267561A1, “HERBICIDAL PYRIDAZINONE DERIVATIVES” (priority 2007, published 2010):
# Legend:
# Format in all cases: in vivo
# [1] = tested on: barnyardgrass (Echinochloa crus-galli); assay: Test A pre-/postemergence plant response
# Method in brief: (§1)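 Greenhouse pot test: loam–sand soil; pre- and postemergence sprays applied same day; post plants 2–10 cm, 1–2 leaves. Readout ~10 d, visual % injury vs untreated (0 = none, 100 = complete control).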
# [2] = tested on: blackgrass (Alopecurus myosuroides); assay: Test A pre-/postemergence plant response
# Method in brief: as §1
# [3] = tested on: canarygrass (Phalaris minor); assay: Test A pre-/postemergence plant response
# Method in brief: as §1
# corn (Zea mays) = assay: Test A pre-/postemergence plant response
# Method in brief: as §1
# [4] = tested on: giant foxtail (Setaria faberi); assay: Test A pre-/postemergence plant response
# Method in brief: as §1
# [5] = tested on: large crabgrass (Digitaria sanguinalis); assay: Test A pre-/postemergence plant response
# Method in brief: as §1
# [6] = tested on: pigweed (Amaranthus retroflexus); assay: Test A pre-/postemergence plant response
# Method in brief: as §1
# [7] = tested on: wheat (Triticum aestivum); assay: Test A pre-/postemergence plant response
# Method in brief: as §1
# [8] = tested on: morningglory (Ipomoea coccinea); assay: Test A pre-/postemergence plant response
# Method in brief: as §1
# [9] = tested on: velvetleaf (Abutilon theophrasti); assay: Test A pre-/postemergence plant response
# Method in brief: as §1
# [10] = tested on: barnyardgrass (Echinochloa crus-galli); assay: Test B flooded paddy test plant response
# Method in brief: (§2)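 Compounds were added directly to paddy water over 2-leaf-stage plants in pots flooded 3 cm above soil, water depth maintained. Visual injury scored against controls after 13 to 15 days in greenhouse, 0 (none) to 100 (complete control); dash indicates no result.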
# [11] = tested on: ducksalad (Heteranthera limosa); assay: Test B flooded paddy test plant response
# Method in brief: as §2
# rice (Oryza sativa) = assay: Test B flooded paddy test plant response
# Method in brief: as §2
# [12] = tested on: umbrella sedge (Cyperus difformis); assay: Test B flooded paddy test plant response
# Method in brief: as §2
# [13] = Postemergence, 31 g ai/ha, 0 to 100 scale (0 no effect, 100 complete control)
# [14] = Postemergence, 125 g ai/ha, 0 to 100 scale, 0 no effect, 100 complete control
# [15] = Preemergence, 31 g ai/ha, 0 to 100 scale, 0 is no effect, 100 is complete control
# [16] = Preemergence, 125 g ai/ha, 0 to 100 scale (0 no effect, 100 complete control)
# [17] = Flood (flooded paddy test), 62 g ai/ha, scale 0 to 100, 0 no effect, 100 complete control
# [18] = Flood (flooded paddy test), 125 g ai/ha, scale 0 to 100, 0 no effect, 100 complete control
# [19] = Flood (flooded paddy test), 250 g ai/ha, scale 0 to 100, 0 no effect, 100 complete control
# [20] = Flood, 31 g ai/ha, scale 0 to 100
compound,measurement,setting,value
Cn1ncc(O)c(-c2nn(-c3ccc(C(F)(F)F)cc3)cc2Cl)c1=O [Compound 88],"Plant response rating, Barnyardgrass",[1]; [13],10
same,"Plant response rating, Barnyardgrass",[1]; [14],90
same,"Plant response rating, Barnyardgrass",[1]; [15],0
same,"Plant response rating, Barnyardgrass",[1]; [16],90
same,"Plant response rating, Blackgrass",[2]; [13],10
same,"Plant response rating, Blackgrass",[2]; [14],70
same,"Plant response rating, Blackgrass",[2]; [15],40
same,"Plant response rating, Blackgrass",[2]; [16],80
same,"Plant response rating, Canarygrass",[3]; [13],30
same,"Plant response rating, Canarygrass",[3]; [14],70
same,"Plant response rating, Canarygrass",[3]; [15],0
same,"Plant response rating, Canarygrass",[3]; [16],70
same,"Plant response rating, Corn",corn (Zea mays); [13],0
same,"Plant response rating, Corn",corn (Zea mays); [14],50
same,"Plant response rating, Corn",corn (Zea mays); [15],0
same,"Plant response rating, Corn",corn (Zea mays); [16],20
same,"Plant response rating, Foxtail, Giant",[4]; [13],40
same,"Plant response rating, Foxtail, Giant",[4]; [14],90
same,"Plant response rating, Foxtail, Giant",[4]; [15],40
same,"Plant response rating, Foxtail, Giant",[4]; [16],90
same,"Plant response rating, Crabgrass, Large",[5]; [13],40
same,"Plant response rating, Crabgrass, Large",[5]; [14],90
same,"Plant response rating, Crabgrass, Large",[5]; [15],0
same,"Plant response rating, Crabgrass, Large",[5]; [16],90
same,"Plant response rating, Pigweed",[6]; [13],0
same,"Plant response rating, Pigweed",[6]; [14],0
same,"Plant response rating, Pigweed",[6]; [15],0
same,"Plant response rating, Pigweed",[6]; [16],0
same,"Plant response rating, Wheat",[7]; [13],20
same,"Plant response rating, Wheat",[7]; [14],60
same,"Plant response rating, Wheat",[7]; [15],0
same,"Plant response rating, Wheat",[7]; [16],40
Cc1c(Br)c(-c2ccc(Br)cc2)nn1-c1c(O)cnn(C)c1=O [Compound 70],"Plant response rating, Barnyardgrass",[1]; [13],0
same,"Plant response rating, Barnyardgrass",[1]; [14],50
same,"Plant response rating, Barnyardgrass",[1]; [15],0
same,"Plant response rating, Barnyardgrass",[1]; [16],0
same,"Plant response rating, Blackgrass",[2]; [13],0
same,"Plant response rating, Blackgrass",[2]; [14],10
same,"Plant response rating, Blackgrass",[2]; [15],0
same,"Plant response rating, Blackgrass",[2]; [16],0
same,"Plant response rating, Canarygrass",[3]; [13],0
same,"Plant response rating, Canarygrass",[3]; [14],0
same,"Plant response rating, Canarygrass",[3]; [15],0
same,"Plant response rating, Canarygrass",[3]; [16],0
same,"Plant response rating, Corn",corn (Zea mays); [13],0
same,"Plant response rating, Corn",corn (Zea mays); [14],20
same,"Plant response rating, Corn",corn (Zea mays); [15],0
same,"Plant response rating, Corn",corn (Zea mays); [16],0
same,"Plant response rating, Foxtail, Giant",[4]; [13],0
same,"Plant response rating, Foxtail, Giant",[4]; [14],0
same,"Plant response rating, Foxtail, Giant",[4]; [15],0
same,"Plant response rating, Foxtail, Giant",[4]; [16],0
same,"Plant response rating, Crabgrass, Large",[5]; [13],0
same,"Plant response rating, Crabgrass, Large",[5]; [14],0
same,"Plant response rating, Crabgrass, Large",[5]; [15],0
same,"Plant response rating, Crabgrass, Large",[5]; [16],0
same,"Plant response rating, Pigweed",[6]; [13],0
same,"Plant response rating, Pigweed",[6]; [14],0
same,"Plant response rating, Pigweed",[6]; [15],0
same,"Plant response rating, Pigweed",[6]; [16],0
same,"Plant response rating, Wheat",[7]; [13],0
same,"Plant response rating, Wheat",[7]; [14],0
same,"Plant response rating, Wheat",[7]; [15],0
same,"Plant response rating, Wheat",[7]; [16],0
CCc1cc(-c2ccc(C(F)(F)F)cc2)nn1-c1c(OC(=O)C2CCCCC2)cnn(C)c1=O [Compound 95],"Plant response rating, Barnyardgrass",[1]; [13],100
same,"Plant response rating, Barnyardgrass",[1]; [14],100
same,"Plant response rating, Barnyardgrass",[1]; [15],50
same,"Plant response rating, Barnyardgrass",[1]; [16],100
same,"Plant response rating, Blackgrass",[2]; [13],70
same,"Plant response rating, Blackgrass",[2]; [14],100
same,"Plant response rating, Blackgrass",[2]; [15],90
same,"Plant response rating, Blackgrass",[2]; [16],100
same,"Plant response rating, Canarygrass",[3]; [13],90
same,"Plant response rating, Canarygrass",[3]; [14],100
same,"Plant response rating, Canarygrass",[3]; [15],70
same,"Plant response rating, Canarygrass",[3]; [16],100
same,"Plant response rating, Corn",corn (Zea mays); [13],90
same,"Plant response rating, Corn",corn (Zea mays); [14],100
same,"Plant response rating, Corn",corn (Zea mays); [15],40
same,"Plant response rating, Corn",corn (Zea mays); [16],90
same,"Plant response rating, Foxtail, Giant",[4]; [13],100
same,"Plant response rating, Foxtail, Giant",[4]; [14],100
same,"Plant response rating, Foxtail, Giant",[4]; [15],100
same,"Plant response rating, Foxtail, Giant",[4]; [16],100
same,"Plant response rating, Crabgrass, Large",[5]; [13],90
same,"Plant response rating, Crabgrass, Large",[5]; [14],100
same,"Plant response rating, Crabgrass, Large",[5]; [15],90
same,"Plant response rating, Crabgrass, Large",[5]; [16],100
same,"Plant response rating, Pigweed",[6]; [13],0
same,"Plant response rating, Pigweed",[6]; [14],0
same,"Plant response rating, Pigweed",[6]; [15],0
same,"Plant response rating, Pigweed",[6]; [16],0
same,"Plant response rating, Wheat",[7]; [13],70
same,"Plant response rating, Wheat",[7]; [14],80
same,"Plant response rating, Wheat",[7]; [15],80
same,"Plant response rating, Wheat",[7]; [16],90
CCc1cc(-c2ccc(Br)cc2)nn1-c1c(O)c(OC)nn(C)c1=O [Compound 89],"Plant response rating, Barnyardgrass",[1]; [13],100
same,"Plant response rating, Barnyardgrass",[1]; [14],100
same,"Plant response rating, Barnyardgrass",[1]; [15],30
same,"Plant response rating, Barnyardgrass",[1]; [16],100
same,"Plant response rating, Blackgrass",[2]; [13],100
same,"Plant response rating, Blackgrass",[2]; [14],100
same,"Plant response rating, Blackgrass",[2]; [15],90
same,"Plant response rating, Blackgrass",[2]; [16],100
same,"Plant response rating, Canarygrass",[3]; [13],100
same,"Plant response rating, Canarygrass",[3]; [14],100
same,"Plant response rating, Canarygrass",[3]; [15],50
same,"Plant response rating, Canarygrass",[3]; [16],100
same,"Plant response rating, Corn",corn (Zea mays); [13],100
same,"Plant response rating, Corn",corn (Zea mays); [14],100
same,"Plant response rating, Corn",corn (Zea mays); [15],50
same,"Plant response rating, Corn",corn (Zea mays); [16],70
same,"Plant response rating, Foxtail, Giant",[4]; [13],100
same,"Plant response rating, Foxtail, Giant",[4]; [14],100
same,"Plant response rating, Foxtail, Giant",[4]; [15],90
same,"Plant response rating, Foxtail, Giant",[4]; [16],100
same,"Plant response rating, Crabgrass, Large",[5]; [13],100
same,"Plant response rating, Crabgrass, Large",[5]; [14],100
same,"Plant response rating, Crabgrass, Large",[5]; [15],70
same,"Plant response rating, Crabgrass, Large",[5]; [16],100
same,"Plant response rating, Pigweed",[6]; [14],0
same,"Plant response rating, Pigweed",[6]; [15],0
same,"Plant response rating, Pigweed",[6]; [16],0
same,"Plant response rating, Wheat",[7]; [13],80
same,"Plant response rating, Wheat",[7]; [14],90
same,"Plant response rating, Wheat",[7]; [15],40
same,"Plant response rating, Wheat",[7]; [16],90
CCc1cc(-c2ccc(Cl)s2)nn1-c1c(O)cnn(C)c1=O [Compound 63],"Plant response rating, Barnyardgrass",[1]; [13],0
same,"Plant response rating, Barnyardgrass",[1]; [14],20
same,"Plant response rating, Barnyardgrass",[1]; [15],0
same,"Plant response rating, Barnyardgrass",[1]; [16],10
same,"Plant response rating, Corn",corn (Zea mays); [13],0
same,"Plant response rating, Corn",corn (Zea mays); [14],30
same,"Plant response rating, Corn",corn (Zea mays); [15],0
same,"Plant response rating, Corn",corn (Zea mays); [16],0
same,"Plant response rating, Foxtail, Giant",[4]; [13],0
same,"Plant response rating, Foxtail, Giant",[4]; [14],60
same,"Plant response rating, Foxtail, Giant",[4]; [15],0
same,"Plant response rating, Foxtail, Giant",[4]; [16],0
same,"Plant response rating, Crabgrass, Large",[5]; [13],10
same,"Plant response rating, Crabgrass, Large",[5]; [14],10
same,"Plant response rating, Crabgrass, Large",[5]; [15],0
same,"Plant response rating, Crabgrass, Large",[5]; [16],0
same,"Plant response rating, Morningglory",[8]; [13],0
same,"Plant response rating, Morningglory",[8]; [14],0
same,"Plant response rating, Morningglory",[8]; [15],0
same,"Plant response rating, Morningglory",[8]; [16],0
same,"Plant response rating, Pigweed",[6]; [13],0
same,"Plant response rating, Pigweed",[6]; [14],0
same,"Plant response rating, Pigweed",[6]; [15],0
same,"Plant response rating, Pigweed",[6]; [16],0
same,"Plant response rating, Velvetleaf",[9]; [13],0
same,"Plant response rating, Velvetleaf",[9]; [14],0
same,"Plant response rating, Velvetleaf",[9]; [15],0
same,"Plant response rating, Velvetleaf",[9]; [16],0
same,"Plant response rating, Wheat",[7]; [13],0
same,"Plant response rating, Wheat",[7]; [14],20
same,"Plant response rating, Wheat",[7]; [15],0
same,"Plant response rating, Wheat",[7]; [16],0
same,"Plant response rating, Barnyardgrass",[10]; [17],0
same,"Plant response rating, Barnyardgrass",[10]; [18],0
same,"Plant response rating, Barnyardgrass",[10]; [19],0
same,"Plant response rating, Barnyardgrass",[10]; [20],0
same,"Plant response rating, Ducksalad",[11]; [17],0
same,"Plant response rating, Ducksalad",[11]; [18],0
same,"Plant response rating, Ducksalad",[11]; [19],0
same,"Plant response rating, Ducksalad",[11]; [20],0
same,"Plant response rating, Rice",rice (Oryza sativa); [17],0
same,"Plant response rating, Rice",rice (Oryza sativa); [18],0
same,"Plant response rating, Rice",rice (Oryza sativa); [19],0
same,"Plant response rating, Rice",rice (Oryza sativa); [20],0
same,"Plant response rating, Sedge, Umbrella",[12]; [17],0
same,"Plant response rating, Sedge, Umbrella",[12]; [18],0
same,"Plant response rating, Sedge, Umbrella",[12]; [19],0
same,"Plant response rating, Sedge, Umbrella",[12]; [20],0
